Source: ChEMBL document CHEMBL6114943, “Engineered Cyclotide Blocks Neuronal Excitotoxicity” (J Med Chem, 2025)
*1 amine or outer side, *2 acyl side, *3 side chain or, on linkers, in order; H or OH if unused. Where a SMILES comes first, the peptide text is derived from it. Bridges are numbered along the chain shown (N, C = ends). The star is where a group is joined. X2 = CC(C)C[C@H](C(=O)[C@H](CCCCNC(=O)c1ccc(-c2c3ccc(=[N+](C)C)cc-3oc3cc(N(C)C)ccc23)c(C(=O)[O-])c1)N[*:2])C(=O)[*:1]; X1 = CC[N+]1=C(/C=C/C=C/C=C/C=C2/N(CCCCCC(=O)*)c3ccc(S(=O)(=O)O)cc3C2(C)C)C(C)(C)c2cc(S(=O)(=O)[O-])ccc21

What was measured:
[1] = Drug uptake in mouse Primary neuron at 100 nM incubated for 60 mins by inverted confocal microscopic analysis relative to control; type: ADME, cell-based; conditions: 1 h, 0.1 µM
[2] = Drug uptake in mouse Primary neuron at 500 nM incubated for 60 mins by inverted confocal microscopic analysis relative to control; type: ADME, cell-based; conditions: 1 h, 0.5 µM
[3] = Drug uptake in mouse Primary neuron at 100 nM measured at 60 mins by inverted confocal microscopic analysis; type: ADME, cell-based; conditions: 1 h, 0.1 µM
[4] = system: Neuron; experiment: Cytotoxicity against mouse primary neuron upto 1 uM incubated for 24 hrs; type: toxicity, cell-based
[5] = Biodistribution in C57BL/6 mouse spleen at 3 nmol/g, iv measured after 90 mins post injection by fluorescence based analysis; type: ADME, organism-based; conditions: in vivo, 1.5 h
[6] = Biodistribution in C57BL/6 mouse kidney at 3 nmol/g, iv measured after 90 mins post injection by fluorescence based analysis; type: ADME, organism-based; conditions: in vivo, 1.5 h
[7] = Biodistribution in C57BL/6 mouse liver at 3 nmol/g, iv measured after 90 mins post injection by fluorescence based analysis; type: ADME, organism-based; conditions: in vivo, 1.5 h
[8] = Biodistribution in C57BL/6 mouse lung at 3 nmol/g, iv measured after 90 mins post injection by fluorescence based analysis; type: ADME, organism-based; conditions: in vivo, 1.5 h
[9] = Biodistribution in C57BL/6 mouse spleen at 3 nmol/g, iv measured after 24 hrs post injection by fluorescence based analysis; type: ADME, organism-based; conditions: in vivo
[10] = Biodistribution in C57BL/6 mouse lung at 3 nmol/g, iv measured after 24 hrs post injection by fluorescence based analysis; type: ADME, organism-based; conditions: in vivo
[11] = Biodistribution in C57BL/6 mouse heart at 3 nmol/g, iv measured after 90 mins post injection by fluorescence based analysis; type: ADME, organism-based; conditions: in vivo, 1.5 h
[12] = Biodistribution in C57BL/6 mouse brain at 3 nmol/g, iv measured after 90 mins post injection by fluorescence based analysis; type: ADME, organism-based; conditions: in vivo, 1.5 h
[13] = Stability in C57BL/6 mouse plasma assessed as drug degradation by measuring parent compound remaining at 100 uM measured after 5 hrs by HPLC analysis relative to control; type: ADME, cell-free; conditions: read-out: Stability
[14] = Stability in C57BL/6 mouse plasma assessed as parent compound remaining at 100 uM measured after 24 hrs by HPLC analysis; type: ADME, cell-free; conditions: read-out: Stability
[15] = Stability in C57BL/6 mouse plasma assessed as drug degradation at 100 uM measured after 5 hrs in presence of alteplase by HPLC analysis; type: ADME, cell-free
[16] = Stability in C57BL/6 mouse plasma assessed as drug degradation by measuring parent compound remaining at 100 uM measured after 5 hrs in presence of alteplase by HPLC analysis relative to control; type: ADME, cell-free; conditions: read-out: Stability
[17] = Stability in C57BL/6 mouse plasma assessed as parent compound remaining at 100 uM measured after 24 hrs in presence of alteplase by HPLC analysis relative to control; type: ADME, cell-free; conditions: read-out: Stability
[18] = Stability in C57BL/6 mouse plasma assessed as half life at 100 uM incubated for 300 min by HPLC analysis; type: ADME, cell-free
[19] = Stability in C57BL/6 mouse plasma assessed as parent compound remaining at 100 uM measured after 5 hrs by HPLC analysis relative to control; type: ADME, cell-free; conditions: read-out: Stability
[20] = Stability in C57BL/6 mouse plasma assessed as drug degradation at 100 uM measured < 15 mins in presence of alteplase by HPLC analysis; type: ADME, cell-free; conditions: 0.25 h
[21] = Stability in C57BL/6 mouse plasma assessed as drug degradation by measuring parent compound remaining at 100 uM measured after 5 hrs by HPLC analysis; type: ADME, cell-free; conditions: read-out: Stability
[22] = Stability in C57BL/6 mouse plasma assessed as drug degradation by measuring parent compound remaining at 100 uM measured after 5 hrs in presence of alteplase by HPLC analysis; type: ADME, cell-free; conditions: read-out: Stability
[23] = Stability in C57BL/6 mouse plasma assessed as parent compound remaining at 100 uM measured after 24 hrs in presence of alteplase by HPLC analysis; type: ADME, cell-free; conditions: read-out: Stability

CC[C@H](C)[C@@H]1NC(=O)[C@@H]2CSSC[C@@H]3NC(=O)[C@H](C(C)C)NC(=O)[C@H](CC(=O)O)NC(=O)[C@H](CO)NC(=O)[C@H](CCC(=O)O)NC(=O)[C@H]([C@@H](C)CC)NC(=O)[C@H](CO)NC(=O)[C@H](CO)NC(=O)[C@H](CC(C)C)NC(=O)[C@H](CCCCN)NC(=O)[C@@H]4CSSC[C@H](NC(=O)[C@H](CC(=O)O)NC(=O)[C@H](CO)NC(=O)[C@H](CC(=O)O)NC(=O)[C@H](CCCNC(=N)N)NC(=O)[C@H](CCCNC(=N)N)NC(=O)[C@H](CSSC[C@H](NC1=O)C(=O)N[C@@H](CCCNC(=N)N)C(=O)NCC(=O)N[C@@H](CC(N)=O)C(=O)NCC(=O)N[C@@H](Cc1ccc(O)cc1)C(=O)N4)NC(=O)[C@H](CCCCN)NC(=O)[C@H](CCCCN)NC(=O)[C@H](CC(C)C)NC(=O)[C@H]([C@@H](C)CC)NC(=O)[C@H](CCCCN)NC(=O)[C@@H]1CCCN1C3=O)C(=O)N1CCC[C@H]1C(=O)NCC(=O)N[C@@H](C)C(=O)N2 (cyclo(ACICRGNGYCKLSSIESDVCPKILKKCRRDSDCPG); disulfide 2-20, 4-27, 10-33)
Drug uptake [1]: Not_active
Drug uptake [2]: 70.6%
Drug uptake [3]: Active
Activity [4]: Non-toxic

CC[C@H](C)[C@H](NC(=O)[C@H](CO)NC(=O)[C@H](CO)NC(=O)[C@H](CC(C)C)NC(=O)[C@H](CCCCN)NC(=O)[C@H](CCCNC(=N)N)NC(=O)[C@H](CCCNC(=N)N)NC(=O)[C@H](CCCNC(=N)N)NC(=O)[C@H](CCC(N)=O)NC(=O)[C@H](CCCNC(=N)N)NC(=O)[C@H](CCCNC(=N)N)NC(=O)[C@H](CCCCN)NC(=O)[C@H](CCCCN)NC(=O)[C@H](CCCNC(=N)N)NC(=O)CNC(=O)[C@H](Cc1ccc(O)cc1)NC(=O)CCCCCN1/C(=C/C=C/C=C/C=C/C2=[N+](CC)c3ccc(S(=O)(=O)[O-])cc3C2(C)C)C(C)(C)c2cc(S(=O)(=O)O)ccc21)C(=O)N[C@@H](CCC(=O)O)C(=O)N[C@@H](CO)C(=O)N[C@@H](CC(=O)O)C(=O)N[C@H](C(=O)O)C(C)C (X1-YGRKKRRQRRRKLSSIESDV-OH)
Drug uptake [5]: Active
Drug uptake [6]: Active
Drug uptake [7]: Active
Drug uptake [8]: Active
Drug uptake [9]: Not_active
Drug uptake [10]: Not_active
Drug uptake [11]: Active
Drug uptake [12]: Active

CC[C@@H](C)[C@@H](NC(=O)[C@@H](CO)NC(=O)[C@@H](CO)NC(=O)[C@@H](CC(C)C)NC(=O)[C@@H](CCCCN)NC(=O)[C@@H](CCCNC(=N)N)NC(=O)[C@@H](CCCNC(=N)N)NC(=O)[C@@H](CCCNC(=N)N)NC(=O)[C@@H](CCC(N)=O)NC(=O)[C@@H](CCCNC(=N)N)NC(=O)[C@@H](CCCNC(=N)N)NC(=O)[C@@H](CCCCN)NC(=O)[C@@H](CCCCN)NC(=O)[C@@H](CCCNC(=N)N)NC(=O)CNC(=O)[C@@H](Cc1ccc(O)cc1)NC(=O)c1ccc(C(=O)[O-])cc1-c1c2ccc(=[N+](C)C)cc-2oc2cc(N(C)C)ccc12)C(=O)N[C@H](CCC(=O)O)C(=O)N[C@H](CO)C(=O)N[C@H](CC(=O)O)C(=O)N[C@@H](C(=O)O)C(C)C
remaining at 5 h, 100 µM [13]: 85%
remaining at 24 h, 100 µM [14]: 80%
Stability [15]: Unstable
remaining at 5 h, 100 µM [16]: 82%
remaining at 24 h, 100 µM [17]: 80%

CC[C@H](C)[C@H](NC(=O)[C@H](CO)NC(=O)[C@H](CO)NC(=O)[C@H](CC(C)C)NC(=O)[C@H](CCCCN)NC(=O)[C@H](CCCNC(=N)N)NC(=O)[C@H](CCCNC(=N)N)NC(=O)[C@H](CCCNC(=N)N)NC(=O)[C@H](CCC(N)=O)NC(=O)[C@H](CCCNC(=N)N)NC(=O)[C@H](CCCNC(=N)N)NC(=O)[C@H](CCCCN)NC(=O)[C@H](CCCCN)NC(=O)[C@H](CCCNC(=N)N)NC(=O)CNC(=O)[C@H](Cc1ccc(O)cc1)NC(=O)c1ccc(C(=O)[O-])cc1-c1c2ccc(=[N+](C)C)cc-2oc2cc(N(C)C)ccc12)C(=O)N[C@@H](CCC(=O)O)C(=O)N[C@@H](CO)C(=O)N[C@@H](CC(=O)O)C(=O)N[C@H](C(=O)O)C(C)C
half-life at 100 µM [18]: ~45 min
remaining at 5 h, 100 µM [19]: 9%
Stability [20]: Unstable

CC[C@H](C)[C@@H]1NC(=O)[C@@H]2CSSC[C@@H]3NC(=O)[C@H](C(C)C)NC(=O)[C@H](CC(=O)O)NC(=O)[C@H](CO)NC(=O)[C@H](CCC(=O)O)NC(=O)[C@H]([C@@H](C)CC)NC(=O)[C@H](CO)NC(=O)[C@H](CO)NC(=O)[C@H](CC(C)C)C(=O)[C@H](CCCCNC(=O)c4ccc(-c5c6ccc(=[N+](C)C)cc-6oc6cc(N(C)C)ccc56)c(C(=O)[O-])c4)NC(=O)[C@@H]4CSSC[C@H](NC(=O)[C@H](CC(=O)O)NC(=O)[C@H](CO)NC(=O)[C@H](CC(=O)O)NC(=O)[C@H](CCCNC(=N)N)NC(=O)[C@H](CCCNC(=N)N)NC(=O)[C@H](CSSC[C@H](NC1=O)C(=O)N[C@@H](CCCNC(=N)N)C(=O)NCC(=O)N[C@@H](CC(N)=O)C(=O)NCC(=O)N[C@@H](Cc1ccc(O)cc1)C(=O)N4)NC(=O)[C@H](CCCNC(=N)N)NC(=O)[C@H](CCCNC(=N)N)NC(=O)[C@H](CCCNC(=N)N)NC(=O)[C@H](CCCNC(=N)N)NC(=O)[C@H](CC(C)C)NC(=O)[C@H]([C@@H](C)CC)NC(=O)[C@H](CCCNC(=N)N)NC(=O)[C@@H]1CCCN1C3=O)C(=O)N1CCC[C@H]1C(=O)NCC(=O)N[C@@H](C)C(=O)N2 (SSIESDVCPRILRRRRCRRDSDCPGACICRGNGYC; disulfide 8-27, 17-29, 23-35; linker N-C via X2)
remaining at 5 h, 100 µM [21]: 93%
remaining at 24 h, 100 µM [14]: 90%
remaining at 5 h, 100 µM [22]: 93%
Drug uptake [1]: 75.9%
Drug uptake [2]: 85.7%
Stability [15]: Unstable
remaining at 24 h, 100 µM [23]: 90%
